Laboratory results published in patent US20160281050A1, “METHODS FOR TREATING A CULTURE OF HAEMATOCOCCUS PLUVIALIS FOR CONTAMINATION USING SALT AND HYDROGEN PEROXIDE” (HELIAE DEVELOPMENT LLC, priority 2015, published 2016).

Tested on: Haematococcus pluvialis (Strain 2)
Assay: % cell lysis, culture dry weight and % carotenoid by UV method in 230 L reactors, salt treatment (Example 12)
Type: cell-based
Details: for Culture Dry Weight in 230L reactors: NaCl 2 ppt (1st 2 ppt column)
Method: This test was done side by side in flasks (0.1 L) and in reactors located in a greenhouse operating in conditions: reactor volume of 230 L; Daily PAR of 20 mol m^−2 d^−1; pH (not measured); and paddlewheel speed of 21 RPM. […] The flask cultures were mixed by shaking at 140 rpm and received 300-400 μmol/m^2 s of photosynthetically active radiation (PAR) in 12 hour light cycles and constant supply of 2.5% CO2. The motility of the culture was monitored by visual observation under a microscope. […] Nine 230 L reactors were also seeded with culture from bioreactor #2410 on the same day as the flasks and brought to 2 ppt concentration of salt. Once motility of the cells was reduced to <10% (day 3 of culture for flasks and day 2 for 230 L reactors) the level of salt was elevated to a point between 4-18 ppt and compared to the culture in two reactors remaining at 2 ppt salt. Flasks and 230 L reactors were monitored for percentage of cell lysis via visual observation under a microscope, culture dry weight (biomass accumulation in g/L), and percentage of chytrid infection via visual observation under a microscope. Carotenoid production, a proxy for determining astaxanthin, was quantified every other day of culture in the 230 L reactors using the UV method.

[Cl-].[Na+] [NaCl, sodium chloride]
% Cell Lysis in 230L reactors (4 ppt, 2 d): 1.67%
% Cell Lysis in 230L reactors (4 ppt, 3 d): 0.00%
% Cell Lysis in 230L reactors (4 ppt, 4 d): 0.00%
% Cell Lysis in 230L reactors (4 ppt, 5 d): 3.33%
% Cell Lysis in 230L reactors (4 ppt, 6 d): 0.00%
% Cell Lysis in 230L reactors (4 ppt, 7 d): 30.00%
% Cell Lysis in 230L reactors (4 ppt, 8 d): 23.33%
% Cell Lysis in 230L reactors (4 ppt, 9 d): 13.33%
% Cell Lysis in 230L reactors (4 ppt, 10 d): 11.67%
% Cell Lysis in 230L reactors (4 ppt, 11 d): 5.00%
% Cell Lysis in 230L reactors (4 ppt, 12 d): 6.67%
% Cell Lysis in 230L reactors (5 ppt, 2 d): 3.18%
% Cell Lysis in 230L reactors (5 ppt, 3 d): 5.00%
% Cell Lysis in 230L reactors (5 ppt, 4 d): 3.33%
% Cell Lysis in 230L reactors (5 ppt, 5 d): 1.67%
% Cell Lysis in 230L reactors (5 ppt, 6 d): 21.67%
% Cell Lysis in 230L reactors (5 ppt, 7 d): 10.00%
% Cell Lysis in 230L reactors (5 ppt, 8 d): 1.67%
% Cell Lysis in 230L reactors (5 ppt, 9 d): 5.00%
% Cell Lysis in 230L reactors (5 ppt, 10 d): 5.00%
% Cell Lysis in 230L reactors (5 ppt, 11 d): 8.33%
% Cell Lysis in 230L reactors (5 ppt, 12 d): 3.33%
% Cell Lysis in 230L reactors (6 ppt, 2 d): 0.00%
% Cell Lysis in 230L reactors (6 ppt, 3 d): 0.00%
% Cell Lysis in 230L reactors (6 ppt, 4 d): 8.33%
% Cell Lysis in 230L reactors (6 ppt, 5 d): 0.00%
% Cell Lysis in 230L reactors (6 ppt, 6 d): 13.33%
% Cell Lysis in 230L reactors (6 ppt, 7 d): 18.33%
% Cell Lysis in 230L reactors (6 ppt, 8 d): 1.67%
% Cell Lysis in 230L reactors (6 ppt, 9 d): 6.67%
% Cell Lysis in 230L reactors (6 ppt, 10 d): 1.67%
% Cell Lysis in 230L reactors (6 ppt, 11 d): 6.67%
% Cell Lysis in 230L reactors (6 ppt, 12 d): 5.00%
% Cell Lysis in 230L reactors (7 ppt, 2 d): 0.00%
% Cell Lysis in 230L reactors (7 ppt, 3 d): 0.00%
% Cell Lysis in 230L reactors (7 ppt, 4 d): 3.33%
% Cell Lysis in 230L reactors (7 ppt, 5 d): 1.67%
% Cell Lysis in 230L reactors (7 ppt, 6 d): 18.33%
% Cell Lysis in 230L reactors (7 ppt, 7 d): 8.33%
% Cell Lysis in 230L reactors (7 ppt, 8 d): 1.67%
% Cell Lysis in 230L reactors (7 ppt, 9 d): 6.67%
% Cell Lysis in 230L reactors (7 ppt, 10 d): 6.67%
% Cell Lysis in 230L reactors (7 ppt, 11 d): 11.67%
% Cell Lysis in 230L reactors (7 ppt, 12 d): 5.00%
% Cell Lysis in 230L reactors (8 ppt, 2 d): 3.18%
% Cell Lysis in 230L reactors (8 ppt, 3 d): 3.33%
% Cell Lysis in 230L reactors (8 ppt, 4 d): 0.00%
% Cell Lysis in 230L reactors (8 ppt, 5 d): 3.33%
% Cell Lysis in 230L reactors (8 ppt, 6 d): 16.67%
% Cell Lysis in 230L reactors (8 ppt, 7 d): 5.00%
% Cell Lysis in 230L reactors (8 ppt, 8 d): 0.00%
% Cell Lysis in 230L reactors (8 ppt, 9 d): 6.67%
% Cell Lysis in 230L reactors (8 ppt, 10 d): 15.00%
% Cell Lysis in 230L reactors (8 ppt, 11 d): 11.67%
% Cell Lysis in 230L reactors (8 ppt, 12 d): 3.33%
% Cell Lysis in 230L reactors (10 ppt, 2 d): 0.00%
% Cell Lysis in 230L reactors (10 ppt, 3 d): 5.00%
% Cell Lysis in 230L reactors (10 ppt, 4 d): 6.67%
% Cell Lysis in 230L reactors (10 ppt, 5 d): 36.67%
% Cell Lysis in 230L reactors (10 ppt, 6 d): 31.67%
% Cell Lysis in 230L reactors (10 ppt, 7 d): 3.33%
% Cell Lysis in 230L reactors (10 ppt, 8 d): 0.00%
% Cell Lysis in 230L reactors (10 ppt, 9 d): 5.00%
% Cell Lysis in 230L reactors (10 ppt, 10 d): 3.33%
% Cell Lysis in 230L reactors (10 ppt, 11 d): 6.67%
% Cell Lysis in 230L reactors (10 ppt, 12 d): 5.00%
% Cell Lysis in 230L reactors (18 ppt, 2 d): 0.00%
% Cell Lysis in 230L reactors (18 ppt, 3 d): 3.33%
% Cell Lysis in 230L reactors (18 ppt, 4 d): 13.33%
% Cell Lysis in 230L reactors (18 ppt, 5 d): 5.00%
% Cell Lysis in 230L reactors (18 ppt, 6 d): 26.67%
% Cell Lysis in 230L reactors (18 ppt, 7 d): 20.00%
% Cell Lysis in 230L reactors (18 ppt, 8 d): 1.67%
% Cell Lysis in 230L reactors (18 ppt, 9 d): 8.33%
% Cell Lysis in 230L reactors (18 ppt, 10 d): 5.00%
% Cell Lysis in 230L reactors (18 ppt, 11 d): 1.67%
% Cell Lysis in 230L reactors (18 ppt, 12 d): 3.33%
cell lysis (230 L reactors, all treatments except 10 ppt): below 30%
Culture Dry Weight in 230L reactors (time 0 d): 0.030 g/L
Culture Dry Weight in 230L reactors (time 1 d): 0.042 g/L
Culture Dry Weight in 230L reactors (time 2 d): 0.065 g/L
Culture Dry Weight in 230L reactors (time 4 d): 0.145 g/L
Culture Dry Weight in 230L reactors (time 5 d): 0.228 g/L
Culture Dry Weight in 230L reactors (time 6 d): 0.173 g/L
Culture Dry Weight in 230L reactors (time 7 d): 0.185 g/L
Culture Dry Weight in 230L reactors (time 8 d): 0.273 g/L
Culture Dry Weight in 230L reactors (time 9 d): 0.145 g/L
Culture Dry Weight in 230L reactors (time 10 d): 0.220 g/L
Culture Dry Weight in 230L reactors (time 11 d): 0.145 g/L
